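Where inhibition never reached the appropriate level, the endpoint shown equals the highest concentration tested. Otherwise, values were interpolated linearly from a five-concentration, 48-hour dose response in 96-well plates. GI50 marks 50% less growth.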 Activity calls are given as the source filed them. Cut-off read from the data, not from the text of the source: active = GI50 up to about 1.1 µM and inactive = higher.
Key:
Assay in all cases: NCI tumour cell line growth inhibition, 48 h
786-0 = tested on: 786-0
A498 = tested on: A498
A549 = tested on: A549
ACHN = tested on: ACHN
BT-549 = tested on: BT-549
CAKI-1 = tested on: CAKI-1
CCRF-CEM = tested on: CCRF-CEM
COLO 205 = tested on: COLO 205
DU-145 = tested on: DU-145
EKVX = tested on: EKVX
HCC 2998 = tested on: HCC 2998
HCT-116 = tested on: HCT-116
HCT-15 = tested on: HCT-15
HL-60 = tested on: HL-60
HOP-62 = tested on: HOP-62
HOP-92 = tested on: HOP-92
Hs-578T = tested on: Hs-578T
IGROV-1 = tested on: IGROV-1
K562 = tested on: K562
KM12 = tested on: KM12
M14 = tested on: M14
MCF7 = tested on: MCF7
MDA-MB-435 = tested on: MDA-MB-435
MOLT-4 = tested on: MOLT-4
Malme-3M = tested on: Malme-3M
NCI-H23 = tested on: NCI-H23
NCI-H460 = tested on: NCI-H460
NCI-H522 = tested on: NCI-H522
NCI/ADR-RES = tested on: NCI/ADR-RES
OVCAR-3 = tested on: OVCAR-3
OVCAR-4 = tested on: OVCAR-4
OVCAR-5 = tested on: OVCAR-5
OVCAR-8 = tested on: OVCAR-8
PC-3 = tested on: PC-3
RPMI-8226 = tested on: RPMI-8226
RXF 393 = tested on: RXF 393
SF-268 = tested on: SF-268
SF-295 = tested on: SF-295
SF-539 = tested on: SF-539
SK-MEL-2 = tested on: SK-MEL-2
SK-MEL-5 = tested on: SK-MEL-5
SK-OV-3 = tested on: SK-OV-3
SN12C = tested on: SN12C
SNB-19 = tested on: SNB-19
SNB-75 = tested on: SNB-75
SW-620 = tested on: SW-620
T47D = tested on: T47D
TK-10 = tested on: TK-10
UACC-257 = tested on: UACC-257
UO-31 = tested on: UO-31
HT-29 = tested on: HT-29
LOX IMVI = tested on: LOX IMVI
MDA-MB-231 = tested on: MDA-MB-231
NCI-H226 = tested on: NCI-H226
SK-MEL-28 = tested on: SK-MEL-28
SR = tested on: SR
U-251 = tested on: U-251
UACC-62 = tested on: UACC-62

Fc1ccc(C2NC(=S)NC3=C2CCOc2c3ccc3ccccc23)cc1 (configuration not stated)
GI50 (786-0): 33 µM (inactive)
GI50 (A498): 18.9 µM (inactive)
GI50 (A549): 31.3 µM (inactive)
GI50 (ACHN): 58.7 µM (inactive)
GI50 (BT-549): 58.1 µM (inactive)
GI50 (CAKI-1): 16.6 µM (inactive)
GI50 (CCRF-CEM): 54 µM (inactive)
GI50 (COLO 205): 6.67 µM (inactive)
GI50 (DU-145): > 100 µM (inactive)
GI50 (EKVX): 51.9 µM (inactive)
GI50 (HCC 2998): 22.6 µM (inactive)
GI50 (HCT-116): 4.85 µM (inactive)
GI50 (HCT-15): 18.7 µM
GI50 (HL-60): 19 µM (inactive)
GI50 (HOP-62): 64.9 µM (inactive)
GI50 (HOP-92): > 100 µM (inactive)
GI50 (Hs-578T): 42.1 µM (inactive)
GI50 (IGROV-1): 47.1 µM (inactive)
GI50 (K562): 3.39 µM (inactive)
GI50 (KM12): 21.8 µM (inactive)
GI50 (M14): 27.7 µM (inactive)
GI50 (MCF7): 15.7 µM (inactive)
GI50 (MDA-MB-435): 8.53 µM (inactive)
GI50 (MOLT-4): 19.9 µM (inactive)
GI50 (Malme-3M): 17.4 µM (inactive)
GI50 (NCI-H23): 24.4 µM (inactive)
GI50 (NCI-H460): 30.7 µM (inactive)
GI50 (NCI-H522): 35 µM (inactive)
GI50 (NCI/ADR-RES): 18.9 µM (inactive)
GI50 (OVCAR-3): 44.1 µM (inactive)
GI50 (OVCAR-4): 24.7 µM (inactive)
GI50 (OVCAR-5): 94.6 µM (inactive)
GI50 (OVCAR-8): > 100 µM (inactive)
GI50 (PC-3): 50.8 µM (inactive)
GI50 (RPMI-8226): 19.8 µM (inactive)
GI50 (RXF 393): 14.8 µM (inactive)
GI50 (SF-268): 45.1 µM (inactive)
GI50 (SF-295): 34.4 µM (inactive)
GI50 (SF-539): > 100 µM (inactive)
GI50 (SK-MEL-2): 79.6 µM (inactive)
GI50 (SK-MEL-5): 11.3 µM (inactive)
GI50 (SK-OV-3): 82.4 µM (inactive)
GI50 (SN12C): 94.8 µM (inactive)
GI50 (SNB-19): 55.1 µM (inactive)
GI50 (SNB-75): 13.6 µM (inactive)
GI50 (SW-620): 39.1 µM (inactive)
GI50 (T47D): 2.7 µM (inactive)
GI50 (TK-10): 44.9 µM (inactive)
GI50 (UACC-257): 53.8 µM (inactive)
GI50 (UO-31): 26.7 µM (inactive)

NC(=O)c1c2c(n3ccccc13)C(=O)c1ccccc1C2=O
GI50 (786-0): 71.8 µM (inactive)
GI50 (A498): > 100 µM (inactive)
GI50 (ACHN): > 100 µM (inactive)
GI50 (BT-549): > 100 µM (inactive)
GI50 (CAKI-1): > 100 µM (inactive)
GI50 (CCRF-CEM): > 100 µM (inactive)
GI50 (COLO 205): 39.6 µM (inactive)
GI50 (DU-145): > 100 µM (inactive)
GI50 (EKVX): > 100 µM (inactive)
GI50 (HCC 2998): > 100 µM (inactive)
GI50 (HCT-116): > 100 µM (inactive)
GI50 (HCT-15): > 100 µM
GI50 (HL-60): > 100 µM (inactive)
GI50 (HOP-62): 30.2 µM (inactive)
GI50 (HOP-92): 31 µM (inactive)
GI50 (HT-29): 32.2 µM (inactive)
GI50 (Hs-578T): 96.6 µM (inactive)
GI50 (IGROV-1): 42.7 µM (inactive)
GI50 (K562): > 100 µM (inactive)
GI50 (KM12): > 100 µM (inactive)
GI50 (LOX IMVI): > 100 µM (inactive)
GI50 (M14): 18.1 µM (inactive)
GI50 (MCF7): > 100 µM (inactive)
GI50 (MDA-MB-231): 38.5 µM (inactive)
GI50 (MDA-MB-435): 20.2 µM (inactive)
GI50 (MOLT-4): > 100 µM (inactive)
GI50 (NCI-H226): 52.4 µM (inactive)
GI50 (NCI-H23): 11.9 µM (inactive)
GI50 (NCI-H460): 19.4 µM (inactive)
GI50 (NCI/ADR-RES): > 100 µM (inactive)
GI50 (OVCAR-4): > 100 µM (inactive)
GI50 (OVCAR-8): > 100 µM (inactive)
GI50 (PC-3): > 100 µM (inactive)
GI50 (RPMI-8226): > 100 µM (inactive)
GI50 (RXF 393): 37 µM (inactive)
GI50 (SF-268): > 100 µM (inactive)
GI50 (SF-295): 29 µM (inactive)
GI50 (SF-539): 39.6 µM (inactive)
GI50 (SK-MEL-28): > 100 µM (inactive)
GI50 (SK-MEL-2): 32.3 µM (inactive)
GI50 (SK-MEL-5): 16.1 µM (inactive)
GI50 (SK-OV-3): > 100 µM (inactive)
GI50 (SNB-19): 74 µM (inactive)
GI50 (SNB-75): 37.6 µM (inactive)
GI50 (SR): > 100 µM (inactive)
GI50 (SW-620): > 100 µM (inactive)
GI50 (T47D): > 100 µM (inactive)
GI50 (TK-10): > 100 µM (inactive)
GI50 (U-251): 39.6 µM (inactive)
GI50 (UACC-257): 32.1 µM (inactive)
GI50 (UACC-62): 68.2 µM (inactive)
GI50 (UO-31): > 100 µM (inactive)

Source: ChEMBL document CHEMBL1201862, “PubChem BioAssay data set” (2004)
